The record followed here is ChEMBL document CHEMBL5291721, “A preclinical secondary pharmacology resource illuminates target-adverse drug reaction associations of marketed drugs” (Nat Commun, 2023).

Usually AC50 stands for the concentration at which the activity in the assay is half-maximal. A high value points to weaker potency.

Assay [1] has as its target Adenosine receptor A2a (Homo sapiens, UniProt P29274).
The target of assay [2] is T1, Adenosine receptor A3 (Homo sapiens, UniProt P0DMS8).
T1 sequence (P0DMS8 whole entry): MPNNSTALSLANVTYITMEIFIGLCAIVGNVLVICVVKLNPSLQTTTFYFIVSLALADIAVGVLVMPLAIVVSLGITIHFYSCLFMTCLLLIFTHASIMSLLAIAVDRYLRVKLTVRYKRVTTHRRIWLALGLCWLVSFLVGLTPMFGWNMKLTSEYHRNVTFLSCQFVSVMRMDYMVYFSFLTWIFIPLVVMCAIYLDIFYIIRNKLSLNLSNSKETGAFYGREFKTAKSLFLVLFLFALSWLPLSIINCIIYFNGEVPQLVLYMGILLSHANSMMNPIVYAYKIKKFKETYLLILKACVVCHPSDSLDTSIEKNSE

Assay [3] concerns the target Beta-1 adrenergic receptor (Homo sapiens, UniProt P08588). The class given is functional.
Assay [4] concerns the target Beta-2 adrenergic receptor (Homo sapiens, UniProt P07550). The format is functional, cell-based.
The target of assay [5] is T2, Cholecystokinin receptor type A (Homo sapiens, UniProt P32238).
T2 sequence (P32238 whole entry): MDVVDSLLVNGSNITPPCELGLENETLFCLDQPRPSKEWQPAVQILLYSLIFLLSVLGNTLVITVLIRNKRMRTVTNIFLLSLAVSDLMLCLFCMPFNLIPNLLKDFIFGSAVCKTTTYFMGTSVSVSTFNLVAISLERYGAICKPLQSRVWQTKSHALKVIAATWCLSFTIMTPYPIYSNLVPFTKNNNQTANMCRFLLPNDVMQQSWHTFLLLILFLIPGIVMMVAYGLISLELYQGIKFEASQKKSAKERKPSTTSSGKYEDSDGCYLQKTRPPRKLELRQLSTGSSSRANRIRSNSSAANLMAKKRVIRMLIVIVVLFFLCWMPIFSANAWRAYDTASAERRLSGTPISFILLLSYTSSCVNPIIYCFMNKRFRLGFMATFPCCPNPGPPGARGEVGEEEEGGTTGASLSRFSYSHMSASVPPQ

Assay [6] addresses Gamma-aminobutyric acid receptor subunit alpha-1 (Rattus norvegicus, UniProt P62813). The class given is functional.
The target of assay [7] is Growth hormone secretagogue receptor type 1 (Homo sapiens, UniProt Q92847).
Chain of Growth hormone secretagogue receptor type 1 (Q92847 whole entry): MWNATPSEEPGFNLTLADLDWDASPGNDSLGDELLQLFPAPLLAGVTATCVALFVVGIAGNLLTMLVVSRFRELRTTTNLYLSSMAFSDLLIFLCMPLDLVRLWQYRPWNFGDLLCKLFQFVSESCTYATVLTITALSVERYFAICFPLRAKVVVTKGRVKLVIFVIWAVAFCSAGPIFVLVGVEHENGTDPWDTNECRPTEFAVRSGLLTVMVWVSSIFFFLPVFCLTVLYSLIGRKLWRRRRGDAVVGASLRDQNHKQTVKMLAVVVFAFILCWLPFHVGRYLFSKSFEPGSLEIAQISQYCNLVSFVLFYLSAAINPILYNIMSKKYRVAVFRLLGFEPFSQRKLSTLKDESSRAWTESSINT
The target in assay [8] is T3, 5-hydroxytryptamine receptor 2C (Homo sapiens, UniProt P28335).
T3 sequence (P28335 whole entry): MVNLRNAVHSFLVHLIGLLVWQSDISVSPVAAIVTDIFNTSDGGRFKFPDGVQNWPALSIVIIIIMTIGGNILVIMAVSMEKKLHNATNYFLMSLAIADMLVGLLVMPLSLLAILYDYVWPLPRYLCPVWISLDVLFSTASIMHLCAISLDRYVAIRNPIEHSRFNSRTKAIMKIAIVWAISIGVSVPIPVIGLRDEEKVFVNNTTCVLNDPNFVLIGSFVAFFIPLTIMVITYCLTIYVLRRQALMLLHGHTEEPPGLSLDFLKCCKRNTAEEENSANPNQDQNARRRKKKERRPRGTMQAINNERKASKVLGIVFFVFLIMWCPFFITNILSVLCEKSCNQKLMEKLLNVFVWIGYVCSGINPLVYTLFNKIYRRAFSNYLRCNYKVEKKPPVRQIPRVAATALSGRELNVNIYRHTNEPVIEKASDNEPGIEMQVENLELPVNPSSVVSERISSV

Assay [9] has as its target T4, Progesterone receptor (Homo sapiens, UniProt P06401).
T4 sequence (P06401 whole entry): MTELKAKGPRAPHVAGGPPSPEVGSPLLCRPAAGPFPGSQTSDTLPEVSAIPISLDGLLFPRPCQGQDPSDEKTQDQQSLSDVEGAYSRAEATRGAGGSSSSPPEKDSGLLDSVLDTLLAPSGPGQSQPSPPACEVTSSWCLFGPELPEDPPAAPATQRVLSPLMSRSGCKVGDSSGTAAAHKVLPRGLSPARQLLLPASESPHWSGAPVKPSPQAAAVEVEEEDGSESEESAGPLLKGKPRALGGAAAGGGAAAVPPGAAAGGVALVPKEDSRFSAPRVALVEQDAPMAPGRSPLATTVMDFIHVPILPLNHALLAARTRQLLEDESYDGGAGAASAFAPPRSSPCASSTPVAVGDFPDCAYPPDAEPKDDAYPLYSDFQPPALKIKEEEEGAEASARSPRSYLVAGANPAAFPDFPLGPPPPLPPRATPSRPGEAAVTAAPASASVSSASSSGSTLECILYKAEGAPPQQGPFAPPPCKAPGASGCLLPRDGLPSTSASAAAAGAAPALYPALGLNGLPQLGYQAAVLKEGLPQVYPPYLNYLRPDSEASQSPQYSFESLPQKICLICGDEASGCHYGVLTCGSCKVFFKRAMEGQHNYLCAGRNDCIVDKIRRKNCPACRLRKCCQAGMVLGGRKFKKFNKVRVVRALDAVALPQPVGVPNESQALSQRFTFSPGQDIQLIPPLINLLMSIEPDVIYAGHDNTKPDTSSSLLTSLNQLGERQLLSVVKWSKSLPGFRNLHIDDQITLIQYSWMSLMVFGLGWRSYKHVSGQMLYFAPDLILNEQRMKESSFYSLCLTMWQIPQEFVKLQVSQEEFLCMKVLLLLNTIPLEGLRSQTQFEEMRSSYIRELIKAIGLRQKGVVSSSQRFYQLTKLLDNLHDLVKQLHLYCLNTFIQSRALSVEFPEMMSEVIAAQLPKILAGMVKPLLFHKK

Assay [10] has as its target Histamine H3 receptor (Homo sapiens, UniProt Q9Y5N1).
Assay [11] deals with Glutamate receptor ionotropic, NMDA 1 (Rattus norvegicus, UniProt P35439).
For assay [12], the target named is Kappa-type opioid receptor (Homo sapiens, UniProt P41145).
Chain of Kappa-type opioid receptor (P41145 whole entry): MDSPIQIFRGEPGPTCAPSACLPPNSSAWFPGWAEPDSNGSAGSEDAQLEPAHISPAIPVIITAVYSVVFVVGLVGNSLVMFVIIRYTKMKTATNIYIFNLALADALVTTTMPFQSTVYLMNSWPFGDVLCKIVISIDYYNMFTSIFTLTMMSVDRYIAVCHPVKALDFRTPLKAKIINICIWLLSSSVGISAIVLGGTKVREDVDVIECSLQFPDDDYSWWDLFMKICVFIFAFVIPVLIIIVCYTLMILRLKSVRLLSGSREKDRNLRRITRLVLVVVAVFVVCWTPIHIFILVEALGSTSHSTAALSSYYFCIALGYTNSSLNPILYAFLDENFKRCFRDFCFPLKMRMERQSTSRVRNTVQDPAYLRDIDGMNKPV
Assay [13] deals with T5, Thromboxane A2 receptor (Homo sapiens, UniProt P21731).
T5 sequence (P21731 whole entry): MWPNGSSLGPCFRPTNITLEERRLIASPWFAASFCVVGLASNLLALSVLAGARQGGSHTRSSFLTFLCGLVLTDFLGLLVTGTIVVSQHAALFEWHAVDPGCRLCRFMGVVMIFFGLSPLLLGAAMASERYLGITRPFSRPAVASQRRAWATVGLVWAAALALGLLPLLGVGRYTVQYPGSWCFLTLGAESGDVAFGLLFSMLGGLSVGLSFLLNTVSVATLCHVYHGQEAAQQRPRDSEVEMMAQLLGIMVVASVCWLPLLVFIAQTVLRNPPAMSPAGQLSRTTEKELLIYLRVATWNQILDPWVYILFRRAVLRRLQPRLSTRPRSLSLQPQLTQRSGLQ

Where only a bound is given, the exact number is not on record here.
Also: assay procedure not described here.

Chain of Histamine H3 receptor (Q9Y5N1 whole entry): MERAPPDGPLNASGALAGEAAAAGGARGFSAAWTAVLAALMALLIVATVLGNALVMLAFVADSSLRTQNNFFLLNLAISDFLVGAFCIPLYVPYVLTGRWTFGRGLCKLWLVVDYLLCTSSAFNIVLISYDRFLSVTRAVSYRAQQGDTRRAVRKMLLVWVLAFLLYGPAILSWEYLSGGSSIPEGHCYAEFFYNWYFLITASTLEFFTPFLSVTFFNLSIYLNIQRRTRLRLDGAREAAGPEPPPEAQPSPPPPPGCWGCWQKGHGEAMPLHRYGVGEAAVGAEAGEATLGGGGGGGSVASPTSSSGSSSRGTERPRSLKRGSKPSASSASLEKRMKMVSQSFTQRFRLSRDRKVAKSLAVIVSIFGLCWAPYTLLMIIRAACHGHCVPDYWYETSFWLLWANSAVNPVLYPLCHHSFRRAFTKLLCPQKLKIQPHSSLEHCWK
Chain of Gamma-aminobutyric acid receptor subunit alpha-1 (P62813 whole entry): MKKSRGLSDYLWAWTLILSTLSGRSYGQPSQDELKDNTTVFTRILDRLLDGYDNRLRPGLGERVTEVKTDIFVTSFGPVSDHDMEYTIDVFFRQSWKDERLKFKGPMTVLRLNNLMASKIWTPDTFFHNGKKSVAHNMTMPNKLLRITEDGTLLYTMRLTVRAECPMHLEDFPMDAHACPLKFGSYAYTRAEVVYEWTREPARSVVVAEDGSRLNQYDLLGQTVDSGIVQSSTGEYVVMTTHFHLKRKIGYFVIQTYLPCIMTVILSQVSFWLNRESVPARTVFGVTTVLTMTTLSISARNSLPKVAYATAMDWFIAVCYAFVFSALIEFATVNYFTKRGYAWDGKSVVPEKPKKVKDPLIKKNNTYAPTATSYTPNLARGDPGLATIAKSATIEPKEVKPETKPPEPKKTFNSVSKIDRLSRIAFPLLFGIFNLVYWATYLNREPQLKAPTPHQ
Chain of Beta-2 adrenergic receptor (P07550 whole entry): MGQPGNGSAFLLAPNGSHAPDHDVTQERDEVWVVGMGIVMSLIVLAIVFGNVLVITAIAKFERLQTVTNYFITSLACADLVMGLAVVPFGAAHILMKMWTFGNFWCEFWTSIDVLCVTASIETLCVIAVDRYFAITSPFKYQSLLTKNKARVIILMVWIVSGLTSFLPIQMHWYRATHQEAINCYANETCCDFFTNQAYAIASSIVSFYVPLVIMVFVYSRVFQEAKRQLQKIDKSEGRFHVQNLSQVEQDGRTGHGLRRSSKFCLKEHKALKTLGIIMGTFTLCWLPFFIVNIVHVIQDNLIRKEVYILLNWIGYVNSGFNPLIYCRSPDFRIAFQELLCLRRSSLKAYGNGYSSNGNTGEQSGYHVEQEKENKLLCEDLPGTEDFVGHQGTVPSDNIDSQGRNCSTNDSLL
Chain of Beta-1 adrenergic receptor (P08588 whole entry): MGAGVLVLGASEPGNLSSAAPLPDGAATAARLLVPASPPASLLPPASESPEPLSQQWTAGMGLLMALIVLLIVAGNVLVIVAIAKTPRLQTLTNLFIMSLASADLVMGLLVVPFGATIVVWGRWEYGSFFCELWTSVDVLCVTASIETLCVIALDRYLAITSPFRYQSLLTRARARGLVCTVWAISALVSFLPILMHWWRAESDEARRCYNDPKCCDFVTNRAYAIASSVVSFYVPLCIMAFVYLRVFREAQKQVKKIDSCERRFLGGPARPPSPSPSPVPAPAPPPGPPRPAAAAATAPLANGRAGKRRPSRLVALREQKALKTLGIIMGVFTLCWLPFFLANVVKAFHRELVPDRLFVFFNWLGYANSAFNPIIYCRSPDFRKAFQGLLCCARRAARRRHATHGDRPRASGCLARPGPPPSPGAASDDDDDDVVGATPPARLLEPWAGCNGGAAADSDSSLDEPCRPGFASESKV
Chain of Adenosine receptor A2a (P29274 whole entry): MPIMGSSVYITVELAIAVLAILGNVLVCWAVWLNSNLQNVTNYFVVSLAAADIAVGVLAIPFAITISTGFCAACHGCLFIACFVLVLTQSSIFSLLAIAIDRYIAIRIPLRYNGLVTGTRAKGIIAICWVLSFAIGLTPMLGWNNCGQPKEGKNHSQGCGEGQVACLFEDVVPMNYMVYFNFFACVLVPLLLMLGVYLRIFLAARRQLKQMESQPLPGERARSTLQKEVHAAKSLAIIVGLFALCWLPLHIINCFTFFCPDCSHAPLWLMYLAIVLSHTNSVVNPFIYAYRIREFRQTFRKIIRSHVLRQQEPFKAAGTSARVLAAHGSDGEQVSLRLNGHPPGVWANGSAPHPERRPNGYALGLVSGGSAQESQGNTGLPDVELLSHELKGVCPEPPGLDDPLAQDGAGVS

Turning to `C#Cc1cccc(Nc2ncnc3cc(OCCOC)c(OCCOC)cc23)c1` [ERLOTINIB], the AC50 in [1] is 18 µM; in assay [2], 3.01 µM; in assay [3], over 30 µM; in assay [4] it was over 30 µM; in assay [5], 9.1 µM; in assay [6], over 30 µM. Moreover, the AC50 in assay [7], in assay [8], in assay [9] and in assay [10] was over 30 µM in each case.
For `CCC(=O)O[C@@H](O[P@](=O)(CCCCc1ccccc1)CC(=O)N1C[C@H](C2CCCCC2)C[C@H]1C(=O)O)C(C)C` [FOSINOPRIL], the AC50 in assay [4], in assay [6], in [11], in assay [8], in assay [12] and in assay [9] was over 30 µM in each case.
On to `CN(C)c1cc(CNCC(C)(C)C)c(O)c2c1C[C@H]1C[C@H]3[C@H](N(C)C)C(O)=C(C(N)=O)C(=O)[C@@]3(O)C(O)=C1C2=O` [OMADACYCLINE], for which the AC50 in assay [1], in assay [3], in assay [4], in assay [5], in [6] and in assay [7] was over 30 µM throughout. Also, the AC50 was over 30 µM in assay [11], over 30 µM in assay [8], over 30 µM in assay [9] and 24 µM in [10].
As to `CNC(=O)c1cc(Oc2ccc(NC(=O)Nc3ccc(Cl)c(C(F)(F)F)c3)c(F)c2)ccn1` [REGORAFENIB], the AC50 was over 30 µM in assay [1], over 30 µM in assay [3], over 30 µM in assay [4] and over 3 µM in assay [9].
As to `Cn1c(=O)c2[nH]cnc2n(C)c1=O` [THEOPHYLLINE], the AC50 in assay [3] is over 10 µM; in assay [4], over 30 µM; in assay [5], over 30 µM; in assay [6] it was over 10 µM; in assay [7], over 30 µM; in [11], over 10 µM. Moreover, the AC50 in assay [8] was over 30 µM; in [12], over 10 µM; in assay [9] it was over 30 µM; in [13] it was over 30 µM; in [10], over 10 µM.
`CN1CCN(CCCN2c3ccccc3Sc3ccc(S(=O)(=O)N(C)C)cc32)CC1` [THIOPROPERAZINE]: the AC50 is over 30 µM in [4]; over 30 µM in [6]; over 10 µM in [11]; 6.14 µM in [8]; over 30 µM in assay [12]; over 30 µM in [9].
